Where “and” joins values, the source holds several entries; their conditions need not be identical. Identical values can stand only once. Like-named read-outs stand apart in the source and are kept apart here.
Assays:
[1] = Moisture stability of tetrathiotungstate salts; format: physicochemical
[2] = Copper-binding ability: inhibition of cysteine autooxidation; format: biochemical; conditions: 100 μM Cys, 100 μM coumarin-3-carboxylic acid, 100 μM CuSO4
Protocol: The copper-binding ability of tetrathiotungstate salts was determined according to the ability of tetrathiotungstate salts to inhibit cysteine autooxidation as reported in Table 2 below.

[3] = tested on: angiogenesis; assay: Matrigel plug assay (inhibition of angiogenesis); format: in vivo, athymic nude mice; conditions: FIG. 1
Protocol: This assay is performed essentially as described by Passaniti et al., Lab Invest. 1992, 67:519-528. Ice-cold Matrigel® (e.g., 500 μL) (Collaborative Biomedical Products, Inc., Bedford, Mass.) is mixed with heparin (e.g., 50 μg/ml), FGF-2 (e.g., 400 ng/ml) and the compound to be tested. In some assays, bFGF may be substituted with tumor cells as the angiogenic stimulus. The Matrigel® mixture is injected subcutaneously into 4-8 week-old athymic nude mice at sites near the abdominal midline, preferably 3 injections per mouse. The injected Matrigel®b forms a palpable solid gel. […] Hemoglobin (Hb) levels are determined using Drabkin's solution (e.g., obtained from Sigma) according to the manufacturers' instructions. […] The amount of fluorescence in the dispersed plug which is determined fluorimetrically serves as a measure of angiogenesis in the plug. […]
Ammonium tetrathiotungstate was assayed in the Matrigel® plug assay as described in Section 5.4.7, supra. Two positive controls were used with positive control 1 measured five days after implantation when treatment began and […] measured five days after implantation when treatment ended. Two negative controls were used with negative control 1 measured five days after implantation when treatment began and […] measured five days after implantation when treatment ended.

[4] = room temperature, 95% relative humidity, two weeks, purity by absorbance, * = partially soluble, ‡ = average of 2 data points

Compound: C[N+](C)(C)CCOC(=O)CCCCCCC(=O)OCC[N+](C)(C)C.[S]=[W](=[S])([S-])[S-] [Tetrathiotungstate, suberyldicholine]
- % degradation [1, 4]: 18.4* %
- % inhibition ([2]; inhibitor concentration 1 μM): 67.74%
- % inhibition ([2]; inhibitor concentration 10 μM): 77.83%

Compound: Tetrathiotungstate, pentane-1,5-bis(trimethylammonium)
- % inhibition ([2]; inhibitor concentration 50 μM): 90.69%

Compound: C[N+](C)(C)CCO.C[N+](C)(C)CCO.[S]=[W](=[S])([S-])[S-] [Tetrathiotungstate, bis(choline)]
- % degradation [1]: 3.0%
- % inhibition ([2]; inhibitor concentration 50 μM): 92.54% and 91.99%

Compound: CC[N+](CC)(CC)c1ccccc1.CC[N+](CC)(CC)c1ccccc1.[S]=[W](=[S])([S-])[S-] [Tetrathiotungstate, bis(triethylphenyl ammonium)]
- % degradation [1, 4]: −0.12%
- % inhibition ([2]; inhibitor concentration 50 μM): 91.32%

Compound: Tetrathiotungstate, propane-1,3-bis(trimethylammonium)
- % inhibition ([2]; inhibitor concentration 10 μM): 85.53%
- % inhibition ([2]; inhibitor concentration 50 μM): 92.95%

Compound: Cc1cc[n+](C)cc1.Cc1cc[n+](C)cc1.[S]=[W](=[S])([S-])[S-] [Tetrathiotungstate, bis(1,4-dimethylpyridinium)]
- % degradation [1, 4]: 2.0%
- % inhibition ([2]; inhibitor concentration 50 μM): 89.98% and 89.66%

Compound: NCCNCCNCCN [trientine, reference compound]
- % inhibition ([2]; inhibitor concentration 1 μM): 0.00%
- % inhibition ([2]; inhibitor concentration 50 μM): 39.71%

Compound: C[N+]1(C)CCCC1.C[N+]1(C)CCCC1.[S]=[W](=[S])([S-])[S-] [Tetrathiotungstate, bis(1,1-dimethylpyrrolidinium)]
- % degradation [1, 4]: 0.04%

Compound: C[N+](C)(C)Cc1ccccc1.C[N+](C)(C)Cc1ccccc1.[S]=[W](=[S])([S-])[S-] [Tetrathiotungstate, bis(benzzyltrimethylammonium)]
- % degradation [1, 4]: 0.41%
- % inhibition ([2]; inhibitor concentration 50 μM): 94.62%

Compound: CCn1cc[n+](C)c1.CCn1cc[n+](C)c1.[S]=[W](=[S])([S-])[S-] [Tetrathiotungstate, bis(l-ethyl-3-methyl-1H-imidazolium)]
- % degradation [1, 4]: 1.3%
- % inhibition ([2]; inhibitor concentration 50 μM): 91.16%

Compound: CC(=O)OCC[N+](C)(C)C.CC(=O)OCC[N+](C)(C)C.[S]=[W](=[S])([S-])[S-] [Tetrathiotungstate, bis(acetylcholine)]
- % degradation [1]: 2.4%
- % inhibition ([2]; inhibitor concentration 50 μM): 90.36%

Compound: Tetrathiotungstate, bis(ammonium) [reference compound]
- % degradation [1, 4]: −0.46%
- % inhibition ([2]; inhibitor concentration 50 μM): 95.94%
- inhibition of angiogenesis [3]: about 34%

Compound: CC(=O)OC(C)C[N+](C)(C)C.CC(=O)OC(C)C[N+](C)(C)C.[S]=[W](=[S])([S-])[S-] (stereo not drawn) [Tetrathiotungstate, bis(acetyl-β-methylcholine)]
- % degradation [1, 4]: 4.2%
- % inhibition ([2]; inhibitor concentration 50 μM): 90.40%

Compound: Tetrathiotungstate, ethylenebis(trimethylammonium)
- % degradation [1, 4]: 8.6* %
- % inhibition ([2]; inhibitor concentration 10 μM): 84.66%
- % inhibition ([2]; inhibitor concentration 50 μM): 89.60%

Compound: C[N+](C)(C)CCO.C[N+](C)(C)CCO.[S]=[Mo](=[S])([S-])[S-] [Tetrathiomolybdate, bis (choline), reference compound]
- % degradation [1]: 36 ± 2%

Compound: Tetrathiotungstate, (succinylcholine)
- % degradation [1, 4]: 23.3* %
- % inhibition ([2]; inhibitor concentration 1 μM): 66.06%
- % inhibition ([2]; inhibitor concentration 10 μM): 81.38%

Compound: C[n+]1ccccc1C=NO.C[n+]1ccccc1C=NO.[S]=[W](=[S])([S-])[S-] [Tetrathiotungstate, bis(2-hydroxyiminomethyl-1-methyl-pyridinium)]
- % degradation [1, 4]: 5.6%
- % inhibition ([2]; inhibitor concentration 50 μM): 91.15%

Compound: [NH4+].[NH4+].[SH-].[SH-].[S]=[Mo]=[S] [Tetrathiomolybdate, bis(ammonium), reference compound]
- % inhibition ([2]; inhibitor concentration 1 μM): 68.48%
- % inhibition ([2]; inhibitor concentration 10 μM): 87.71% and 76.69%
- % inhibition ([2]; inhibitor concentration 50 μM): 94.24%

Compound: C[N+](C)(C)c1ccccc1.C[N+](C)(C)c1ccccc1.[S]=[W](=[S])([S-])[S-] [Tetrathiotungstate, bis(trimethylphenylammonium)]
- % degradation [1, 4]: −0.46%
- % inhibition ([2]; inhibitor concentration 50 μM): 91.53%

Compound: Tetrathiotungstate, butane-1,4-bis(trimethylammonium)
- % inhibition ([2]; inhibitor concentration 10 μM): 87.32%
- % inhibition ([2]; inhibitor concentration 50 μM): 91.75%
